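Tested at 5 concentrations; 48 h exposure; 96-well plates; endpoints linearly interpolated, else capped at highest concentration. The concentration for 50% growth inhibition is given as GI50. At the TGI there is no net growth.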 Some results are limits rather than exact numbers.

This passage reports TGI and GI50 results from PubChem BioAssay (NCI).

Among the test systems are IGROV1 ovarian; KM12 colon; ACHN renal; HCT-15 colon; T-47D breast; RXF 393 renal; SF-539 CNS; K-562 leukemia; HOP-62 NSCLC; MOLT-4 leukemia.
Test in all cases: DTP human tumour cell line panel, 48 h

By TGI is commonly meant the concentration at which net growth stops. The low end stands for greater sensitivity of the cells, the high end for lower sensitivity of the cells. In the case of `O=C(N/N=C/c1ccccc1)c1cccc2nc3ccccc3nc12`, the TGI with IGROV1 ovarian, in the assay on KM12 colon, in the assay with ACHN renal, with HCT-15 colon, in the assay with T-47D breast and with RXF 393 renal was > 100 µM throughout. The TGI in the assay on SF-539 CNS is > 100 µM; in the assay with K-562 leukemia, > 100 µM; with HOP-62 NSCLC, > 45.7 µM; in the assay on MOLT-4 leukemia, > 100 µM.

For the compound `CC[C@@]1(O)C(=O)OCc2c1cc1n(c2=O)Cc2c-1nc1ccccc1c2/C=N/NC(=O)c1ccc(N)cc1`, the TGI in the assay with KM12 colon is > 75.9 µM; in the assay with HCT-15 colon, > 100 µM; in the assay with T-47D breast, 0.389 µM; in the assay on RXF 393 renal, 0.22 µM; in the assay with SF-539 CNS it was 0.019 µM; in the assay with K-562 leukemia, > 31.6 µM. In addition, the values for the TGI with HOP-62 NSCLC and with MOLT-4 leukemia were 1.61 µM and 0.287 µM, respectively.

As to `CC(=O)N(C(C)=O)c1cc2c3c(c1)CCCN3CCC2`, the TGI in the assay with IGROV1 ovarian, in the assay on KM12 colon, in the assay with ACHN renal, with HCT-15 colon, with T-47D breast and in the assay with RXF 393 renal was > 10 µM throughout. The TGI in the assay on SF-539 CNS, with K-562 leukemia, in the assay on HOP-62 NSCLC and in the assay with MOLT-4 leukemia was > 10 µM in each case.

`ClCCCCCc1c2nc(c(CCCCCCl)c3ccc([nH]3)c(CCCCCCl)c3ccc([nH]3)c(CCCCCCl)c3nc1C=C3)C=C2`: the TGI in the assay with IGROV1 ovarian, with KM12 colon, in the assay on ACHN renal, in the assay on HCT-15 colon, in the assay on T-47D breast and in the assay on RXF 393 renal was > 100 µM throughout. Also, the total growth inhibition concentration (TGI) in the assay on SF-539 CNS, in the assay on K-562 leukemia, with HOP-62 NSCLC and in the assay with MOLT-4 leukemia was > 100 µM throughout.

Turning to `CCOP(=O)(OCC)OC1c2[nH]cc(C(=O)OCc3ccccc3)c2-c2cc(C(=O)OC)[nH]c2C1OC` (centres undefined), the TGI in the assay on IGROV1 ovarian is 31.6 µM; in the assay on KM12 colon, > 92.6 µM; in the assay on ACHN renal, 30.5 µM; in the assay on HCT-15 colon it was > 100 µM; in the assay on T-47D breast it was 24 µM; with RXF 393 renal, > 56.3 µM. The TGI with SF-539 CNS is > 43.7 µM; in the assay on K-562 leukemia it was > 100 µM; in the assay with HOP-62 NSCLC, 36.3 µM; with MOLT-4 leukemia, > 100 µM.

Turning to `CC1(C)[C@@H]2C[C@H]1c1cnc(-c3ccccn3)cc1C2CCCCC[C@@H]1c2cc(-c3ccccn3)ncc2[C@@H]2C[C@H]1C2(C)C` (some centres undefined), the TGI with IGROV1 ovarian was 46.1 µM; in the assay on KM12 colon it was > 100 µM; with ACHN renal it was > 100 µM; in the assay with HCT-15 colon it was > 100 µM; in the assay on T-47D breast it was > 100 µM; with RXF 393 renal, 45.5 µM. Besides, the TGI in the assay on SF-539 CNS was 0.456 µM; with K-562 leukemia, > 100 µM; with HOP-62 NSCLC, > 69.2 µM; with MOLT-4 leukemia it was > 100 µM.

As a reminder, the GI50 is the concentration that inhibits growth by half. Take `COc1cc(OC)c2[nH]c3c(O)c(-c4c(C)cc5c([nH]c6c(OC)cc(OC)cc65)c4O)c(C)cc3c2c1`: the TGI turned out to be 13.7 µM in the assay with IGROV1 ovarian; 23.8 µM in the assay on KM12 colon; 15.8 µM in the assay on ACHN renal; 16.9 µM in the assay on HCT-15 colon; 17.7 µM with T-47D breast; 16.8 µM with RXF 393 renal. Further, the TGI is 16.8 µM in the assay on SF-539 CNS, 20.5 µM in the assay with K-562 leukemia, 23.9 µM in the assay with HOP-62 NSCLC and 21.9 µM in the assay with MOLT-4 leukemia. Moreover, the results for the GI50 with HCT-15 colon, in the assay on K-562 leukemia and with MOLT-4 leukemia were 8.28 µM, 9.7 µM and 8.59 µM, respectively.

Regarding `COC(=O)CC1c2ccccc2N2C(=O)Cc3c([nH]c4ccccc34)C12` (centres undefined), the TGI in the assay on IGROV1 ovarian, with KM12 colon, with ACHN renal, in the assay on HCT-15 colon, in the assay with T-47D breast and in the assay on RXF 393 renal was > 100 µM each time. In addition, the TGI with K-562 leukemia, in the assay on HOP-62 NSCLC and in the assay on MOLT-4 leukemia was > 100 µM in each case.

For the compound `CN1CC2CN(Cc3ccccc3)CCN2c2cccnc21` (centres undefined), the TGI was > 100 µM in the assay on IGROV1 ovarian; 89.1 µM with KM12 colon; > 100 µM with ACHN renal; > 100 µM with HCT-15 colon; > 100 µM in the assay with T-47D breast; > 100 µM in the assay on RXF 393 renal. Moreover, the TGI in the assay with SF-539 CNS, with K-562 leukemia, with HOP-62 NSCLC and in the assay with MOLT-4 leukemia was > 100 µM each time.

Regarding `Cn1c(N)nc(-c2ccc(Cl)cc2)c1SSc1c(-c2ccc(Cl)cc2)nc(N)n1C`, the TGI came to 9.21 µM in the assay with IGROV1 ovarian; 3.46 µM in the assay with KM12 colon; 5.14 µM in the assay on ACHN renal; 3.44 µM in the assay on HCT-15 colon; 5.06 µM with T-47D breast; 5.47 µM in the assay on RXF 393 renal. The TGI in the assay on SF-539 CNS was 3.33 µM; in the assay with K-562 leukemia, 6.2 µM; in the assay on HOP-62 NSCLC, 7.69 µM; with MOLT-4 leukemia, > 100 µM.

Consider `CCCCCCCCCCCCCCCCCCOCC(O)COP(=O)(O)OCC1OC(n2ccc(N)nc2=O)C(O)C1O` (centres undefined), for which the TGI in the assay on IGROV1 ovarian is 28.5 µM; with KM12 colon it was 41 µM; with ACHN renal, > 100 µM; with HCT-15 colon it was 47.9 µM; in the assay on T-47D breast it was > 100 µM; with RXF 393 renal, 33.3 µM. The TGI with SF-539 CNS is 34.4 µM; in the assay with K-562 leukemia, > 100 µM; with HOP-62 NSCLC, 48.9 µM; in the assay on MOLT-4 leukemia it was 20 µM.

Consider `c1ccc2c(c1)OC(N1CCCC1)c1cnc(N3CCOCC3)nc1-2` (centres undefined), for which the TGI in the assay on KM12 colon is > 100 µM; in the assay on ACHN renal it was > 100 µM; with HCT-15 colon it was > 100 µM; with T-47D breast, 45.2 µM; with RXF 393 renal, 60.4 µM; in the assay with SF-539 CNS, > 100 µM. Besides, the TGI with K-562 leukemia, with HOP-62 NSCLC and in the assay with MOLT-4 leukemia was > 100 µM in each case.

Regarding `COc1ccc(-c2c(C#N)c(S)n(NS(=O)(=O)c3ccccc3)c(=O)c2C#N)cc1`, the TGI with IGROV1 ovarian, in the assay with KM12 colon, in the assay on ACHN renal, in the assay with HCT-15 colon, in the assay on T-47D breast and with RXF 393 renal was > 100 µM throughout. In addition, the TGI is 61.6 µM in the assay on SF-539 CNS, > 100 µM in the assay with K-562 leukemia, > 100 µM with HOP-62 NSCLC and > 100 µM in the assay with MOLT-4 leukemia.
